Values of other authors in patent US8956669B2, “Anticancer and antimicrobial compounds from antarctic extremophilic microorgansims” (priority 2009, dated 2015).
Marks after values point to notes of the source that are not given here.

Experiments:
Mycobacterium smegmatis = settings: literature values, Table 2
[1] = tested on: Mycobacterium tuberculosis; settings: literature values, Table 2

Compound	MIC against Mycobacterium smegmatis (Mycobacterium smegmatis)	MIC against Mycobacterium tuberculosis [1]
O=c1cc(-c2ccccc2O)oc2cc(O)cc(O)c12 [5,7,2′-trihydroxyflavone]	31^h μg/ml	10^h μg/ml
C=CCS[S+]([O-])CC=C (stereo not drawn) [Allicin]	–	25^k μg/ml
O=c1cc(-c2ccccc2)oc2cc(O)c(O)c(O)c12 [Baicalein]	64^a μg/ml	–
O=C(O)[C@H]1O[C@@H](Oc2cc3oc(-c4ccccc4)cc(=O)c3c(O)c2O)[C@H](O)[C@@H](O)[C@@H]1O [Baicalin]	256^a μg/ml	–
COc1ccc(-c2coc3cc(O)cc(O)c3c2=O)cc1 [Biochanin A]	256^a μg/ml	–
CN(C)CCCN1c2ccccc2Sc2ccc(Cl)cc21 [Chlorpromazine]	64^a μg/ml	–
O=C(O)c1cn(C2CC2)c2cc(N3CCNCC3)c(F)cc2c1=O [Ciprofloxacin]	1^c μg/ml	0.5^g μg/ml
O=c1c(-c2ccc(O)cc2)coc2cc(O)ccc12 [Daidzein]	256^a μg/ml	–
Cc1cc(O)c2c(c1)C(=O)C(c1c(C)cc3c(c1O)C(=O)C=CC3=O)=CC2=O [Diospyrin]	100^j μg/ml	100^j μg/ml
O=c1c(-c2ccc(O)cc2)coc2cc(O)cc(O)c12 [Genistein]	256^a μg/ml	–
NNC(=O)c1ccncc1 [Isoniazid]	5^b μg/ml	0.1^f μg/ml
O=c1cc(-c2ccc(O)c(O)c2)oc2cc(O)cc(O)c12 [Luteolin]	32^a μg/ml	200^d μg/ml
O=c1c(O)c(-c2cc(O)c(O)c(O)c2)oc2cc(O)cc(O)c12 [Myricetin]	32^a μg/ml	–
COC(=O)[C@H]1[C@H]2C[C@@H]3c4[nH]c5cc(OC)ccc5c4CCN3C[C@H]2C[C@@H](OC(=O)c2cc(OC)c(OC)c(OC)c2)[C@@H]1OC [Reserpine]	128^a μg/ml	–
Oc1ccc(C=Cc2cc(O)cc(O)c2)cc1 [Resveratrol]	64^a μg/ml	–
CO[C@H]1/C=C/O[C@@]2(C)Oc3c(C)c(O)c4c(O)c(c(/C=N/N5CCN(C)CC5)c(O)c4c3C2=O)NC(=O)/C(C)=C\C=C\[C@H](C)[C@H](O)[C@@H](C)[C@@H](O)[C@@H](C)[C@H](OC(C)=O)[C@@H]1C [Rifampcin]	1^b μg/ml	0.1^f μg/ml
COc1ccc(CCN(C)CCCC(C#N)(c2ccc(OC)c(OC)c2)C(C)C)cc1OC (stereo not drawn) [Verapamil]	256^a μg/ml	–
Cc1cc(O)c2c(c1)C(=O)c1c(oc3c1c(=O)oc1cccc(C)c13)C2=O [crassiflorone]	1.22^l μg/ml	39.06^l μg/ml
CC1=CC(=O)c2c(O)cccc2C1=O [plumbagin]	1.22^l μg/ml	39.06^l μg/ml
Diospyrone	1.22^l μg/ml	39.06^l μg/ml
Laburnetin	–	4.88^e μg/ml
